According to patent US6506901B2, “Substituted 2-(S)-hydroxy-3-(piperidin-4-yl-methylamino)-propyl ethers and substituted 2-aryl-2-(R)-hydroxy-1-(piperidin-4-yl-methyl)-ethylamine β-3 adrenergic receptor agonists” (Wyeth, priority 2000, dated 2003):

Assays:
β3 human transgenic mice = experiment: Thermogenesis (Oxymax indirect calorimeter) in β3 transgenic (Tg) mice; type: in vivo, mice (FVB); details: percent increase in thermogenesis over baseline; for change in vivo at 10 mg/kg: Mus musculus, ip, IP 10 mg/kg
Source text: Evaluation in β3 Knockout(KO) and β3 Transgenic(Tg) Mice: The ability of compounds of this invention to treat or inhibit disorders related to insulin resistance or hyperglycemia was also confirmed with representative compounds of this invention in an in vivo standard pharmacological test procedure which compared thermogenesis in transgenic mice (Tg mice) and β3-knockout mice (KO mice).
β3-Adrenergic receptor knockout mice and β3 human transgenic mice are created on an inbred FVB background (Susulic, V. S., et.al., J. Biol. Chem., 1995, 270 (49), 29483-29492). Female FVB β3 transgenic and β3 knockout mice were used to determine in vivo activity and selectivity of β3 agonists. […] These compounds were also selective in being 100-fold less responsive and partial agonists when tested in β1 and β2 transfected CHO cells. Compounds were tested for increased thermogenesis using the Oxymax indirect calorimeter (Columbus Instruments, Columbus, Ohio). Fed animals were placed in chambers for 3 hours to obtain baseline O2 and CO2 values. Eight fed mice were weighed in pairs and placed in 4 chambers, two per chamber. The relative gas content of each chamber was sampled and recorded at 10 to 12 minute intervals. For each sample, energy expenditure values were calculated by the Oxymax and expressed as kcal/hr. After 3 hours of baseline measurement, the mice were removed, treated and replaced in the chambers. The β3 agonists were injected at doses between 0.1 and 20 mg/kg i.p. and between 1.0 and 30 mg/kg for oral administration. Compounds in 10 mM or 10 mg/ml DMSO solutions were suspended in 0.5% methylcellulose: 0.1% tween-80 and injected i.p. or administered by oral gavage. Some compounds were suspended in 5.0% tween-80 for oral administration. Post-treatment kcal/hr values were taken between 40 minutes and 2.5 hours later. The 6 to 10 sample sections of the pre-treatment and post-treatment periods, which appear to best represent stable resting thermogenesis, were selected. Each of these sample values was corrected for body weight and used such that each pair of mice serves as its own baseline for both T test and percent increase in thermogenesis calculations. An ANOVA and a one sided T test (H1: Post>Pre) are performed using the SAS software modified to down weight extreme values. In a separate set of calculations, values that appear to be too high to represent resting thermogenesis are discarded (activity monitor sampling associated spikes in thermogenesis with ambulatory activity). The mean baseline value for each chamber is subtracted from mean post-treatment value for that chamber. This baseline-subtracted value is divided by the mean baseline value and multiplied by 100 to obtain a percent increase in thermogenesis for each chamber. The combined mean percent increase, standard deviation, and standard error of the mean for each chamber is calculated. Compounds were considered active if they were able to produce a statistically significant 15% increase in thermogenesis in β3 transgenic mice and no significant increase in β3 knockout mice.

Structure (SMILES)	change in vivo at 10 mg/kg (β3 human transgenic mice; mouse type homo) [%]	other results
CCCCCCNC(=O)Nc1ccc(S(=O)(=O)N2CCC(CNC[C@H](O)COc3ccc(O)cc3)CC2)cc1 [Example 59, 1-Hexyl-3-[4-(4-{[(2S)-2-hydroa-3-(4-hydroxy-phenoxy)-propylamino]-methyl}-piperidine-1-sulfonyl)-phenyl]-urea]	5	
O=C(Nc1ccccc1)Nc1ccc(S(=O)(=O)N2CCC(CNC[C@H](O)COc3ccc(O)cc3)CC2)cc1 [Example 63, 1-[4-(4-{[(2S)-2-Hydroxy-3-(4-hydroxy-phenoxy)-propylamino]-methyl}-piperidine-1-sulfonyl)-phenyl]-3-phenyl-urea]	3	
CCCCCCCCNC(=O)Nc1ccc(S(=O)(=O)N2CCC(CNC[C@H](O)COc3ccc(O)cc3)CC2)cc1 [Example 69, 1-[4-(4-{[(2S)-2-Hydroxy-3-(4-hydroxy-phenoxy)-propylamino]-methyl}-piperidine-1-sulfonyl)-phenyl]-3-octyl-urea]	24	change in vivo at 10 mg/kg (β3 human transgenic mice; mouse type hetero): 24%; Thermogenesis, Transgenic Mice, Gavage % (β3 human transgenic mice; mouse type hetero, gavage 30 mg/kg): 14%
O[C@@H](CNCC1CCN(CCC(F)(F)F)CC1)COc1ccc(Br)c2[nH]c3ccccc3c12 [Example 16, (2S)-1-(1-Bromo-9H-carbazol-4-yloxy)-3-{[1-(3,3,3-trifluoro-propyl)-piperidin-4-ylmethyl]-amino}-propan-2-ol]		melting point: 79 °C
O=C(NCc1cc(F)ccc1F)Nc1ccc(S(=O)(=O)N2CCC(CNC[C@H](O)COc3ccc(O)cc3)CC2)cc1 [Example 77, 1-(2,5-Difluoro-benzyl)-3-[4-(4-{[(2S)-2-hydroxy-3-(4-hydroxy-phenoxy)-propylamino]-methyl}-piperidine-1-sulfonyl)-phenyl]-urea]	4	
CCCCCCNC(=O)Nc1ccc(S(=O)(=O)N2CCC(CNC[C@H](O)COc3cccc4[nH]c5ccccc5c34)CC2)cc1 [Example 58, 1-[4-(4-{[(2S)-3-(9H-Carbazol-4-yloxy)-2-hydroxy-propylamino]-methyl}-piperidine-1-sulfonyl)-phenyl]-3-hexyl-urea]		change in vivo at 10 mg/kg (β3 human transgenic mice; mouse type hetero): -3%
O[C@@H](CNCC1CCN(CCC(F)(F)F)CC1)COc1cccc2[nH]c3ccccc3c12 [Example 10, (2S)-1-(9H-Carbazol-4-yloxy)-3-{[1-(3,3,3-trifluoro-propyl)-piperidin-4-ylmethyl]-amino}-propan-2-ol]		change in vivo at 10 mg/kg (β3 human transgenic mice; mouse type hetero): -15%
CS(=O)(=O)Nc1cc(OC[C@@H](O)CNCC2CCN(S(=O)(=O)c3ccc(NC(=O)NCc4cc(F)ccc4F)cc3)CC2)ccc1O [Example 79, N-(5-{(2S)-3-[(1-{4-[3-(2,5-Difluoro-benzyl)-ureido]-benzenesulfonyl}-piperidin-4-ylmethyl)-amino]-2-hydroxy-propoxy}-2-hydroxy-phenyl)-methanesulfonamide]	10	
O[C@@H](CNCC1CCN(c2cc(C(F)(F)F)ccn2)CC1)COc1cccc2[nH]c3ccccc3c12 [Example 5, (2S)-1-(9H-Carbazol-4-yloxy)-3-[(4′-trifluoromethyl-3,4,5,6-tetrahydro-2H-[1,2′]bipyridinyl-4-ylmethyl)-amino]-propan-2-ol]		melting point: 137 to 138 °C
O=C(NCCCc1cccs1)Nc1ccc(S(=O)(=O)N2CCC(CNC[C@H](O)COc3ccc(O)cc3)CC2)cc1 [Example 75, 1-[4-(4-1{[(2S)-2-Hydroxy-3-(4-hydroxy-phenoxy)-propylamino]-methyl}-piperidine-1-sulfonyl)-phenyl]-3-(3-thiophen-2-yl-propyl)-urea]	5	
CCCCCCCCNC(=O)Nc1ccc(S(=O)(=O)N2CCC(CNC[C@H](O)COc3ccc(O)c4c3CCC(=O)N4)CC2)cc1 [Example 74, 1-[4-(4-{[(2S)-2-Hydroxy-3-(8-hydroxy-2-oxo-1,2,3,4-tetrahydro-quinolin-5-yloxy)-propylamino]-methyl}-piperidine-1-sulfonyl)-phenyl]-3-octyl-urea]	18	
